The nature of assay [1]: microbe, parasite or virus in culture. In kind it is functional. As to conditions: Mycobacterium tuberculosis.
Assay [2] in a line: cells.
A short description of assay [3]: viability of uninfected HEp-2 cells – cell-based, HTS, cytotoxicity control for RSV inhibitor project, dose response (AID 2410). In kind it is functional. As to conditions: human respiratory syncytial virus.
Assay [4] is described as follows: A High Throughput Confirmatory Assay used to Identify Novel Compounds that Inhibit Mycobacterium Tuberculosis in the absence of Glycerol. In kind it is functional.
A short description of assay [5]: potency of ADAM10 substrate cleavage blockers – biochemical, QFRET, dose response (AID 743254).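 Further: ADAM10 enzyme with the DM2 quenched FRET peptide as substrate; EDANS fluorescence gain as the protease cuts the substrate; inhibitor potency against ADAM10 proteolytic activity.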
The nature of assay [6]: cells. In kind it is functional.
Assay [7] concerns the target Disintegrin and metalloproteinase domain-containing protein 17 (Homo sapiens, UniProt P78536). The assay is described as follows: inhibition of ADAM17 substrate cleavage – biochemical, quenched FRET substrate, counter-screen for ADAM10 exosite inhibitor project, dose response (AID 743253). (The purpose of a counterscreen is to sort out artefacts and off-target activity.)

Assay [8] addresses Sphingosine 1-phosphate receptor 3 (Homo sapiens, UniProt Q99500). The assay is described as follows: Dose response cell-based high throughput screening assay for antagonists of the Sphingosine 1-Phosphate Receptor 3 (S1P3). [Related pubchem assays: 1429, 485 ]. It counts as functional.
In assay [9] the target is 5-hydroxytryptamine receptor 1E (Homo sapiens, UniProt P28566). Nature of the assay: Counterscreen assay for S1P3 antagonists: Dose response cell-based high throughput screening assay to identify antagonists of the 5-Hydroxytryptamine Receptor Subtype 1E (5HT1E). [Related pubchem assays: 1429, 485 ]. In kind it is functional.
Sequence of 5-hydroxytryptamine receptor 1E (P28566 whole entry): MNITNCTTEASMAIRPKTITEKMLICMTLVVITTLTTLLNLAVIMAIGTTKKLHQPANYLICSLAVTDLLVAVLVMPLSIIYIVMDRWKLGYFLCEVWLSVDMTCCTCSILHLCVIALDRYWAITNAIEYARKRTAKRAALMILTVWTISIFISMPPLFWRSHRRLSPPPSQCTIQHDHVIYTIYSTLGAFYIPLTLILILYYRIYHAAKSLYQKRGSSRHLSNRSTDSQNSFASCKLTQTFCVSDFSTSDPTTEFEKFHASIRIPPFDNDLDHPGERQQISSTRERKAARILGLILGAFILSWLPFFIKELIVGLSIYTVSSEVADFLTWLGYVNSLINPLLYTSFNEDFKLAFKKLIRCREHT
The target of assay [10] is Lysosomal acid glucosylceramidase (Homo sapiens, UniProt P04062). The assay is described as follows: Dose response cell-based high throughput screening assay to identify enhancers of beta-glucosidase activity. [Related pubchem assays: 784 ]. It counts as functional.
Sequence of Lysosomal acid glucosylceramidase (P04062 whole entry): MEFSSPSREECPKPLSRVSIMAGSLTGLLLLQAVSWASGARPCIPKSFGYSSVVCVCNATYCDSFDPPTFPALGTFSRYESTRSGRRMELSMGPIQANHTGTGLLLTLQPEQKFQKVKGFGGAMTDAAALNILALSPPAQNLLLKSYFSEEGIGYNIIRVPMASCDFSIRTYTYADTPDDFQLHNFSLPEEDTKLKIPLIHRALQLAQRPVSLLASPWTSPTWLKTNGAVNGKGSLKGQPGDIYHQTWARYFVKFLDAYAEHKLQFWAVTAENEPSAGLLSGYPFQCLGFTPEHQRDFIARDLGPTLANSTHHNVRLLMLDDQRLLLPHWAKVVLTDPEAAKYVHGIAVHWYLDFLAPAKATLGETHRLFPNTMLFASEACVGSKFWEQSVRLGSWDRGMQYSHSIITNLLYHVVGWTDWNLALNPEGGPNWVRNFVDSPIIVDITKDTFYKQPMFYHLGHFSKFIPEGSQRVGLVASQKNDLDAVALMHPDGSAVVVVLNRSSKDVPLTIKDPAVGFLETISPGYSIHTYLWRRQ
Assay [11] has as its target T1, Protein RecA (Mycobacterium tuberculosis, UniProt P9WHJ3).
T1 sequence (P9WHJ3 whole entry): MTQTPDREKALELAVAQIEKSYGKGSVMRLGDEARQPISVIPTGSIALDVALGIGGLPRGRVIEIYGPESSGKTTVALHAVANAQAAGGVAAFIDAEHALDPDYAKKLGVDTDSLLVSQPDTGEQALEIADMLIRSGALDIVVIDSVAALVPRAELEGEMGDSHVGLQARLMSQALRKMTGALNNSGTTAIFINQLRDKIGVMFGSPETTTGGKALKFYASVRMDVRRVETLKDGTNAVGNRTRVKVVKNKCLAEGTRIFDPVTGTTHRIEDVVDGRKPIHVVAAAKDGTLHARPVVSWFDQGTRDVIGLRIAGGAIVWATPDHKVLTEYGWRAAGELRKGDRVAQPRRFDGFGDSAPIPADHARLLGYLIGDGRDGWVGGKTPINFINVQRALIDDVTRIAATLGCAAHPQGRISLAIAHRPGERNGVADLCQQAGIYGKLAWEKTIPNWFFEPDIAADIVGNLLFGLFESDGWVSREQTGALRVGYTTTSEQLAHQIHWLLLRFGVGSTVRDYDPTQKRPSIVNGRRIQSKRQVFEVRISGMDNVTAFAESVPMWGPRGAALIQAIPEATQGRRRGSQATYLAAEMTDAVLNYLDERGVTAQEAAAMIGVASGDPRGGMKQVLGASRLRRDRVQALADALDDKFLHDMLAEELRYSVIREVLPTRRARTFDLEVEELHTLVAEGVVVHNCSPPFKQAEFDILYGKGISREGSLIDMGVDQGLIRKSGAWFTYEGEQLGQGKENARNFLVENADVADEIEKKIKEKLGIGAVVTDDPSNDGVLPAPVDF
Nature of the assay: Fluorescence Cell-Free Homogeneous Dose Retest to Identify Inhibitors of RecA-Intein Splicing Activity. [Related pubchem assays (depositor defined):AID2097, AID2223, AID489010, AID492950]. In kind it is functional.

Assay [12] in a line: THP-1 cell cytotoxicity, dose response, cytotoxicity control for non-replicating M. tuberculosis project (AID 489025). It counts as functional.
Assay [13] has as its target T2, Mannose-6-phosphate isomerase (Homo sapiens, UniProt P34949).
T2 sequence (P34949 whole entry): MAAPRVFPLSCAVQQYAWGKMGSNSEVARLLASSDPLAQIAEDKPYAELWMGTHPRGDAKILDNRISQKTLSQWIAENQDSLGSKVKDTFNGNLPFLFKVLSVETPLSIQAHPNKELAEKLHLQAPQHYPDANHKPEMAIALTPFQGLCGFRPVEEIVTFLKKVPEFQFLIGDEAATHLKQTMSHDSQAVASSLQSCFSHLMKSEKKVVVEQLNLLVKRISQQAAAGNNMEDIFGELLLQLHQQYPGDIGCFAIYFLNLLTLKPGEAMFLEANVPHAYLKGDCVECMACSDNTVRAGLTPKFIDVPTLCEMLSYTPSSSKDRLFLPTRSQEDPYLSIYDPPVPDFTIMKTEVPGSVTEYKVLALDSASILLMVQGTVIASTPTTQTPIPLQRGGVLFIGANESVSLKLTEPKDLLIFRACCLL
The assay is described as follows: MPI inhibition at elevated mannose 6-phosphate – biochemical, fluorescence intensity, high mannose 6-phosphate, primary screen (AID 1220).

The target of assay [14] is T3, Replicative DNA helicase DnaB (Mycobacterium tuberculosis, UniProt P9WMR3).
T3 sequence (P9WMR3 whole entry): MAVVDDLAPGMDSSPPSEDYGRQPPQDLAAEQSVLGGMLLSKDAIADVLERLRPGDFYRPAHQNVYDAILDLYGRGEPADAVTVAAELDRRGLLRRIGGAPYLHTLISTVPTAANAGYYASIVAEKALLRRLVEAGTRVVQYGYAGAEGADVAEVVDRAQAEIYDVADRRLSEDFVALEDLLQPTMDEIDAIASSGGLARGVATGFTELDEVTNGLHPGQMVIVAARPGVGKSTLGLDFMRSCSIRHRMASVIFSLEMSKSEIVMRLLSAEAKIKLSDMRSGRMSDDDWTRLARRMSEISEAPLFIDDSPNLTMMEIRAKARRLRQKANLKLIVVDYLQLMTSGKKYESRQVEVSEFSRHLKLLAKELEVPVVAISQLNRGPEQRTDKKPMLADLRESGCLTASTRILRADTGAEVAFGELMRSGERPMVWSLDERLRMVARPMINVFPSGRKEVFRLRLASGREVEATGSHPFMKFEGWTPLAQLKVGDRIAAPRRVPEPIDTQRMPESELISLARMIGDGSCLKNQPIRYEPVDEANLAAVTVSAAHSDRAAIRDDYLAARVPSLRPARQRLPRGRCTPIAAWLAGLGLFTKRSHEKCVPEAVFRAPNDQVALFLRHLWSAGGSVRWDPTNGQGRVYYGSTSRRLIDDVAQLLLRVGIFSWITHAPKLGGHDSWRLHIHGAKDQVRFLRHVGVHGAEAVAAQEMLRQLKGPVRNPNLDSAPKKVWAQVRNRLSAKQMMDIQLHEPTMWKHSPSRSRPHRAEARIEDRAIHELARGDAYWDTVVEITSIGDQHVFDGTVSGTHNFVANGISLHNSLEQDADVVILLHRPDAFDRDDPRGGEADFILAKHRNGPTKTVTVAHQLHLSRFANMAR
The assay is described as follows: DnaB intein splicing inhibitors, dose response, biochemical, cell-free fluorescence (AID 449749). In kind it is functional.

For assay [15], the target named is T2, Mannose-6-phosphate isomerase. The assay is described as follows: MPI enzyme activity inhibition – biochemical, fluorescence intensity, coupled assay, primary screen (AID 1209).
Assay [16] has as its target T4, Aspartyl aminopeptidase (Plasmodium falciparum 3D7, UniProt Q8I2J3).
T4 sequence (Q8I2J3 whole entry): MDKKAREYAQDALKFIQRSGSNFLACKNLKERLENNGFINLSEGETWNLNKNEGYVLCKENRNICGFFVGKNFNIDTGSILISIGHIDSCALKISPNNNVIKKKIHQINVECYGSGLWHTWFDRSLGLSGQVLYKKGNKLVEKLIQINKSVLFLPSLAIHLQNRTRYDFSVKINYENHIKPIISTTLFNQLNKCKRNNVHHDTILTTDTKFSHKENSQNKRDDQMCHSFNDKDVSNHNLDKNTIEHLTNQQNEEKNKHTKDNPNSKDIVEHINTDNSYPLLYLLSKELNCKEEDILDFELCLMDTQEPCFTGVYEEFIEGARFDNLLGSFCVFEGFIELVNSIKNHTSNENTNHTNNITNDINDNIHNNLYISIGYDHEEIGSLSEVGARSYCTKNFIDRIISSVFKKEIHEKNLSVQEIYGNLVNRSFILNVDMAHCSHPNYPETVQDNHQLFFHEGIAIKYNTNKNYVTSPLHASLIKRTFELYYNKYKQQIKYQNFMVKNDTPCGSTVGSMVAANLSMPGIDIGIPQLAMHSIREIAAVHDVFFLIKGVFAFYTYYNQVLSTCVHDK

Assay [17] deals with Procathepsin L (Homo sapiens, UniProt P07711).
Sequence of Procathepsin L (P07711 whole entry): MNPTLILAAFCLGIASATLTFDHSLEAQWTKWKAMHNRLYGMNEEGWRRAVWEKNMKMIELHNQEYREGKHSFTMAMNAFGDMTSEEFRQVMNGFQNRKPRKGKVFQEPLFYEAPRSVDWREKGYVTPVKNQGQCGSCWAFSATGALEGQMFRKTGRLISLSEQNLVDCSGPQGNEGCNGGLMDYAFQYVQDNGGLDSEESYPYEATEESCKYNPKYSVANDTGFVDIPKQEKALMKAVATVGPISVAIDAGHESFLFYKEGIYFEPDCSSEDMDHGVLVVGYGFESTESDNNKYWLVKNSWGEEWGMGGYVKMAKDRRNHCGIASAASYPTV
The target of assay [18] is Melanin-concentrating hormone receptor 1 (Homo sapiens, UniProt Q99705). Nature of the assay: Fluorescence-based counterscreen for antagonists of the G-protein coupled receptor 7 (GPR7): cell-based high throughput dose response assay to identify antagonists of the melanin-concentrating hormone receptor 1 (MCHR1). It counts as functional.
Sequence of Melanin-concentrating hormone receptor 1 (Q99705 whole entry): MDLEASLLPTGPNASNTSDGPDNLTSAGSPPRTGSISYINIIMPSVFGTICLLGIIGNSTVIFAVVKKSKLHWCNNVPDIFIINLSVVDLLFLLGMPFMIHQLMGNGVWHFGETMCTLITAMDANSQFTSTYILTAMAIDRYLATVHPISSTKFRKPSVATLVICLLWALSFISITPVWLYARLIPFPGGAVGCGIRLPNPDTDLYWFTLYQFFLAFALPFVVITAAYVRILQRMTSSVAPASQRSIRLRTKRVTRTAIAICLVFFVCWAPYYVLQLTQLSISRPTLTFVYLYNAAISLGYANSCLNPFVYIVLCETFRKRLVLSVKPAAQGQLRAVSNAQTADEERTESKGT
Assay [19] has as its target Neuropeptides B/W receptor type 1 (Homo sapiens, UniProt P48145). The assay is described as follows: Fluorescence-based dose response cell-based high throughput screening assay to identify antagonists of the G-protein coupled receptor 7 (GPR7). [Related pubchem assays: 1952 (Screening assay (GPR7 antagonists).), 1880 (Summary AID.)]. It counts as functional.
The test system of assay [20] is HEK293. The assay is described as follows: Fluorescence-based counterscreen for potentiators or agonists of NPY-Y2: cell-based high-throughput dose response assay to identify inhibitors of cyclic nucleotide gated ion channel (CNGC) activity. In this assay, the parental HEK293 cell line transfected with a cyclic-nucleotide gated ion channel (CNGC)-based cAMP sensor is used to measure inhibition of isoproterenol-induced CNGC activity by test compound. In kind it is functional. As to conditions: Homo sapiens.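 Further: stimulus is 1 µM isoproterenol at EC100 plus PDE inhibitor Ro 20-1724 at 25 µM.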

Assay [21] concerns the target Neuropeptide Y receptor type 2 (Homo sapiens, UniProt P49146). The assay is described as follows: Fluorescence-based cell-based high-throughput dose response assay for agonists of NPY-Y2. [Related pubchem assays: 1703 (Screening assay (CNGC inhibitors).), 1359 (Screening assay (NPY-Y2 potentiators or agonists).), 1304 (Screening assay (NPY-Y1 potentiators or agonists).), 1710 (Screening assay (NPY-Y2 agonists).), 1791 (Summary AID.)]. In kind it is functional.

For assay [22], the target named is Neuropeptide Y receptor type 1 (Homo sapiens, UniProt P25929). The assay is described as follows: Fluorescence-based counterscreen for agonists of NPY-Y2: cell-based high-throughput dose response assay for agonists of NPY-Y1. In kind it is functional.
Sequence of Neuropeptide Y receptor type 1 (P25929 whole entry): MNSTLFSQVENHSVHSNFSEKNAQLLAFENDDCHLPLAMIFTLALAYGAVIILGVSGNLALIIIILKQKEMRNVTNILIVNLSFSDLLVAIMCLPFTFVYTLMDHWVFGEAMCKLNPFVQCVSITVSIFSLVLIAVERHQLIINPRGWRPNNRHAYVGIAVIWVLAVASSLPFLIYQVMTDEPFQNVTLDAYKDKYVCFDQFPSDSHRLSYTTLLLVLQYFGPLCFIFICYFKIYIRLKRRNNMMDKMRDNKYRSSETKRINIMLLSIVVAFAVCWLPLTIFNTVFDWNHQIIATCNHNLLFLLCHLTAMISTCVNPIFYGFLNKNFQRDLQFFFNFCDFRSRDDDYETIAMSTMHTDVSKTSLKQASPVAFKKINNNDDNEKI
Assay [23] concerns the target T5, Heat shock factor protein 1 (Mus musculus, UniProt P38532).
T5 sequence (P38532 whole entry): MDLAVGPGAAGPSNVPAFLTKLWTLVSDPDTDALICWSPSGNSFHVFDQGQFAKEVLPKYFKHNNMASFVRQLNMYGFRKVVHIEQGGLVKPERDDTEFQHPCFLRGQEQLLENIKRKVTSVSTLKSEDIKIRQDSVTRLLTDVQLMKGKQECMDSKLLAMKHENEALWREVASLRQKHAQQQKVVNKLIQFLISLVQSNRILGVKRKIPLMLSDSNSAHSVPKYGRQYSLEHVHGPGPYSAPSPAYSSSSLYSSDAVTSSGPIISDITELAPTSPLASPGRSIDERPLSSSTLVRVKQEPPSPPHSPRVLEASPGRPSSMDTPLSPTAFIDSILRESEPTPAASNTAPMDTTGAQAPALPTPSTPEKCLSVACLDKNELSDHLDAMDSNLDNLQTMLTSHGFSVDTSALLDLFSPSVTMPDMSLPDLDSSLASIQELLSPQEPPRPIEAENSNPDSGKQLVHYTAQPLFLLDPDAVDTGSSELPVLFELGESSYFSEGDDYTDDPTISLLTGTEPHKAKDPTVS
The assay is described as follows: decrease of HSF1-responsive luciferase luminescence – cell-based, NIH3T3, dose retest, confirmation (AID 2382).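 Further: NIH3T3 fibroblasts with HSF1-driven luciferase reporter stressed by proteasome inhibitor MG132; luminescence from HSF1-driven luciferase expression after 8 hours of MG132 stress.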 In kind it is functional.

Assay [24] is described as follows: antiviral protection against BTV-induced cell death – arbovirus, BSR cells, confirmation (AID 1250).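 Further: protection from viral cytopathic effect measured as cell viability by ATP luminescence.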 In kind it is functional.

Activity calls are given as the source filed them. Bounds are passed on as bounds.

Sequence of Disintegrin and metalloproteinase domain-containing protein 17 (P78536 whole entry, the tested form may be a part): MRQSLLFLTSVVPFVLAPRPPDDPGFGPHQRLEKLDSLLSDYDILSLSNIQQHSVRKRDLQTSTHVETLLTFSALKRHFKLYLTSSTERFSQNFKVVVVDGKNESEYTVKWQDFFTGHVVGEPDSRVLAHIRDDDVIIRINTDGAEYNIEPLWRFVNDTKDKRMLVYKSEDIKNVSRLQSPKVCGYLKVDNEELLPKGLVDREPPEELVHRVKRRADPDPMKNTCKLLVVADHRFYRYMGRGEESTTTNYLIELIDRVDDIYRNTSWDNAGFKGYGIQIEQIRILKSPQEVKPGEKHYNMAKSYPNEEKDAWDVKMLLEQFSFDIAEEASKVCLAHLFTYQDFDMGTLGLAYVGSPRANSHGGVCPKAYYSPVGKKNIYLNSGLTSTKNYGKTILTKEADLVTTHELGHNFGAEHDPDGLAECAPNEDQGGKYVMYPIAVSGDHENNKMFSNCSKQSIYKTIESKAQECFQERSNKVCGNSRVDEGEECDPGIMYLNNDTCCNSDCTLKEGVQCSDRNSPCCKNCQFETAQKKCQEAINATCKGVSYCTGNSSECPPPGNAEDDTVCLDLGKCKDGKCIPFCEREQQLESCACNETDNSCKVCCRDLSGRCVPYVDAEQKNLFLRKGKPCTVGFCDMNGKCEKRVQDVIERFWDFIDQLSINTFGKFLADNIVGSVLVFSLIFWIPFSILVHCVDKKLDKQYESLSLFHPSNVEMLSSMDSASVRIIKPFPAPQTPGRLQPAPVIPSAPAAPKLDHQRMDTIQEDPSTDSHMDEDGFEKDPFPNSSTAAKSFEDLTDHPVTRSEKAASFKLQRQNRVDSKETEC
Sequence of Sphingosine 1-phosphate receptor 3 (Q99500 whole entry): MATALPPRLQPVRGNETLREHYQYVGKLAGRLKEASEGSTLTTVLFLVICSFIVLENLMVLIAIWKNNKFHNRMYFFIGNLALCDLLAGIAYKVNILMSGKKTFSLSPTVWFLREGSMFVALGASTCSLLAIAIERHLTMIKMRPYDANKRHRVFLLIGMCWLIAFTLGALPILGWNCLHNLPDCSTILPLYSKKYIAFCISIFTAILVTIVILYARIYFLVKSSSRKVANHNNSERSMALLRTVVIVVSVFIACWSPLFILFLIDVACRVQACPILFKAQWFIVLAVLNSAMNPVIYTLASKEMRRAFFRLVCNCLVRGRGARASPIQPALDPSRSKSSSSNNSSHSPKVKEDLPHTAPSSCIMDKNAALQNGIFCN
Sequence of Neuropeptide Y receptor type 2 (P49146 whole entry): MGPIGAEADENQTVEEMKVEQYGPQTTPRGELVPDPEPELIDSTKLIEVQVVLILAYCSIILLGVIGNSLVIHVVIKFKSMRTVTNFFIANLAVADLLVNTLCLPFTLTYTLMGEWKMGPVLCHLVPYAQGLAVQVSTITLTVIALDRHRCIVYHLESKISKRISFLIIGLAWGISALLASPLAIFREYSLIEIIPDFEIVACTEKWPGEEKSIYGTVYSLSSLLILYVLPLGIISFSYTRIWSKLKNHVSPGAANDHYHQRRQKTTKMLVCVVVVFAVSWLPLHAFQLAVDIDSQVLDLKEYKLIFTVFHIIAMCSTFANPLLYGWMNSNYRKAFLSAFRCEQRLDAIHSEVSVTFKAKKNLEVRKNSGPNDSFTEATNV
Sequence of Neuropeptides B/W receptor type 1 (P48145 whole entry): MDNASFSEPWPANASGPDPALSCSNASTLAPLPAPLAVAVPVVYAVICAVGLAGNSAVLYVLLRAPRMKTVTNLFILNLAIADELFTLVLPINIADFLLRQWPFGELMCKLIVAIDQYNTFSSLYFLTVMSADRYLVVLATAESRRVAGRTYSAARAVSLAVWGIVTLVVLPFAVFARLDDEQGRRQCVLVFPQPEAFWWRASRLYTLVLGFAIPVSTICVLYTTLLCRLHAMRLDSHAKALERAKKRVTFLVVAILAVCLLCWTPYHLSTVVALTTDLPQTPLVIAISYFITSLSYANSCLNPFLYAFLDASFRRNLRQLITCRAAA

As to `COc1ccc(C(C[N+](=O)[O-])c2c(-c3ccccc3)cc3ccccn23)c(OC)c1` (centres undefined), the values for the CC50 in [1] and in [3] were 20.3 µM (active) and > 50 µM (active), respectively. Further, in [2], the IC50 was 36.3 µM (active).
`Cc1cccc(OCC(=O)NNC(=O)c2cc3ccccc3oc2=O)c1`: the IC50 in [4] is > 100 µM (active); in [5], > 69.5 µM (inactive); in assay [6] it was 19.4 µM (active); in assay [7], > 69.5 µM (inactive).
With `C=CCN1CCN(C(c2ccc(Cl)cc2)c2nnnn2CCc2ccc(OC)c(OC)c2)CC1` (centres undefined), the IC50 in assay [8] and in [9] was > 50 µM (not active) throughout.
In the case of `COC(=O)c1cn(-c2ccccc2)nc1-c1cccnc1`, the EC50 in assay [10] is listed as > 50 µM (not active).
Turning to `O=Cc1ccnc(-c2ccc(OC(=O)c3ccco3)cc2)n1`, in assay [11], the EC50 is 16.8 µM (active). The CC50 in assay [12] is > 40 µM (active). Further, the figures for the IC50 in [13] and in assay [15] were 6.56 µM (active) and 7.4 µM (active), respectively. The AC50 in [14] is 5.71 µM (active).
Regarding `Cc1cccc(N=C(S)Nn2cnnc2)c1C`, the IC50 in [16] is 1.9 µM (active); in assay [17], > 59.6 µM (not active).
Regarding `CCOC(=O)c1c[nH]nc1N=C(S)Nc1ccc(OC)cc1`, the results for the IC50 in assay [18] and in assay [19] were > 14.6 µM (not active) and > 43.8 µM (not active), respectively.
Turning to `COc1ccc(COC(=O)c2ccc3c(=O)n4c(nc3c2)CCC4)cc1F`, the EC50 in assay [20], in [21] and in assay [22] was > 35.4 µM (not active) throughout.
As to `COc1ccc2ccccc2c1/C=N/N1C(=O)CSC1=S`, the EC50 in [23] is given as > 195 µM (not active). In [24], the IC50 is 21.1 µM (active).

By IC50 is commonly meant the concentration that inhibits the measured activity by half. The term EC50 denotes the concentration that produces a half-maximal response. A word on the AC50: it is the concentration at which the activity in the assay is half-maximal.

(Values after ChEMBL document CHEMBL1201862, “PubChem BioAssay data set” (2004).)
